Test results reported in paper PMC3469822, “ATP-Driven Remodeling of the Linker Domain in the Dynein Motor” (Structure(London, England:1993), 2012).

What was measured:
[1] = biological target: T1, cytoplasmic dynein motor domain (380 kDa) (Dictyostelium discoideum, UniProt P34036, E2027Q); experiment: cryo-EM reconstruction of head, […] Å; assay type: binding; conditions: 1 mM ATP, 4 mM MgSO4, pH 7.0; AAA1 Walker B mutant that binds but does not hydrolyse ATP; ligand itself not resolved
T1 construct: gene dhcA; tail-less motor domain V1388-I4730, N-terminal His6 and FLAG tags, 380 kDa
T1 sequence (P34036 1388-4730 E2027Q): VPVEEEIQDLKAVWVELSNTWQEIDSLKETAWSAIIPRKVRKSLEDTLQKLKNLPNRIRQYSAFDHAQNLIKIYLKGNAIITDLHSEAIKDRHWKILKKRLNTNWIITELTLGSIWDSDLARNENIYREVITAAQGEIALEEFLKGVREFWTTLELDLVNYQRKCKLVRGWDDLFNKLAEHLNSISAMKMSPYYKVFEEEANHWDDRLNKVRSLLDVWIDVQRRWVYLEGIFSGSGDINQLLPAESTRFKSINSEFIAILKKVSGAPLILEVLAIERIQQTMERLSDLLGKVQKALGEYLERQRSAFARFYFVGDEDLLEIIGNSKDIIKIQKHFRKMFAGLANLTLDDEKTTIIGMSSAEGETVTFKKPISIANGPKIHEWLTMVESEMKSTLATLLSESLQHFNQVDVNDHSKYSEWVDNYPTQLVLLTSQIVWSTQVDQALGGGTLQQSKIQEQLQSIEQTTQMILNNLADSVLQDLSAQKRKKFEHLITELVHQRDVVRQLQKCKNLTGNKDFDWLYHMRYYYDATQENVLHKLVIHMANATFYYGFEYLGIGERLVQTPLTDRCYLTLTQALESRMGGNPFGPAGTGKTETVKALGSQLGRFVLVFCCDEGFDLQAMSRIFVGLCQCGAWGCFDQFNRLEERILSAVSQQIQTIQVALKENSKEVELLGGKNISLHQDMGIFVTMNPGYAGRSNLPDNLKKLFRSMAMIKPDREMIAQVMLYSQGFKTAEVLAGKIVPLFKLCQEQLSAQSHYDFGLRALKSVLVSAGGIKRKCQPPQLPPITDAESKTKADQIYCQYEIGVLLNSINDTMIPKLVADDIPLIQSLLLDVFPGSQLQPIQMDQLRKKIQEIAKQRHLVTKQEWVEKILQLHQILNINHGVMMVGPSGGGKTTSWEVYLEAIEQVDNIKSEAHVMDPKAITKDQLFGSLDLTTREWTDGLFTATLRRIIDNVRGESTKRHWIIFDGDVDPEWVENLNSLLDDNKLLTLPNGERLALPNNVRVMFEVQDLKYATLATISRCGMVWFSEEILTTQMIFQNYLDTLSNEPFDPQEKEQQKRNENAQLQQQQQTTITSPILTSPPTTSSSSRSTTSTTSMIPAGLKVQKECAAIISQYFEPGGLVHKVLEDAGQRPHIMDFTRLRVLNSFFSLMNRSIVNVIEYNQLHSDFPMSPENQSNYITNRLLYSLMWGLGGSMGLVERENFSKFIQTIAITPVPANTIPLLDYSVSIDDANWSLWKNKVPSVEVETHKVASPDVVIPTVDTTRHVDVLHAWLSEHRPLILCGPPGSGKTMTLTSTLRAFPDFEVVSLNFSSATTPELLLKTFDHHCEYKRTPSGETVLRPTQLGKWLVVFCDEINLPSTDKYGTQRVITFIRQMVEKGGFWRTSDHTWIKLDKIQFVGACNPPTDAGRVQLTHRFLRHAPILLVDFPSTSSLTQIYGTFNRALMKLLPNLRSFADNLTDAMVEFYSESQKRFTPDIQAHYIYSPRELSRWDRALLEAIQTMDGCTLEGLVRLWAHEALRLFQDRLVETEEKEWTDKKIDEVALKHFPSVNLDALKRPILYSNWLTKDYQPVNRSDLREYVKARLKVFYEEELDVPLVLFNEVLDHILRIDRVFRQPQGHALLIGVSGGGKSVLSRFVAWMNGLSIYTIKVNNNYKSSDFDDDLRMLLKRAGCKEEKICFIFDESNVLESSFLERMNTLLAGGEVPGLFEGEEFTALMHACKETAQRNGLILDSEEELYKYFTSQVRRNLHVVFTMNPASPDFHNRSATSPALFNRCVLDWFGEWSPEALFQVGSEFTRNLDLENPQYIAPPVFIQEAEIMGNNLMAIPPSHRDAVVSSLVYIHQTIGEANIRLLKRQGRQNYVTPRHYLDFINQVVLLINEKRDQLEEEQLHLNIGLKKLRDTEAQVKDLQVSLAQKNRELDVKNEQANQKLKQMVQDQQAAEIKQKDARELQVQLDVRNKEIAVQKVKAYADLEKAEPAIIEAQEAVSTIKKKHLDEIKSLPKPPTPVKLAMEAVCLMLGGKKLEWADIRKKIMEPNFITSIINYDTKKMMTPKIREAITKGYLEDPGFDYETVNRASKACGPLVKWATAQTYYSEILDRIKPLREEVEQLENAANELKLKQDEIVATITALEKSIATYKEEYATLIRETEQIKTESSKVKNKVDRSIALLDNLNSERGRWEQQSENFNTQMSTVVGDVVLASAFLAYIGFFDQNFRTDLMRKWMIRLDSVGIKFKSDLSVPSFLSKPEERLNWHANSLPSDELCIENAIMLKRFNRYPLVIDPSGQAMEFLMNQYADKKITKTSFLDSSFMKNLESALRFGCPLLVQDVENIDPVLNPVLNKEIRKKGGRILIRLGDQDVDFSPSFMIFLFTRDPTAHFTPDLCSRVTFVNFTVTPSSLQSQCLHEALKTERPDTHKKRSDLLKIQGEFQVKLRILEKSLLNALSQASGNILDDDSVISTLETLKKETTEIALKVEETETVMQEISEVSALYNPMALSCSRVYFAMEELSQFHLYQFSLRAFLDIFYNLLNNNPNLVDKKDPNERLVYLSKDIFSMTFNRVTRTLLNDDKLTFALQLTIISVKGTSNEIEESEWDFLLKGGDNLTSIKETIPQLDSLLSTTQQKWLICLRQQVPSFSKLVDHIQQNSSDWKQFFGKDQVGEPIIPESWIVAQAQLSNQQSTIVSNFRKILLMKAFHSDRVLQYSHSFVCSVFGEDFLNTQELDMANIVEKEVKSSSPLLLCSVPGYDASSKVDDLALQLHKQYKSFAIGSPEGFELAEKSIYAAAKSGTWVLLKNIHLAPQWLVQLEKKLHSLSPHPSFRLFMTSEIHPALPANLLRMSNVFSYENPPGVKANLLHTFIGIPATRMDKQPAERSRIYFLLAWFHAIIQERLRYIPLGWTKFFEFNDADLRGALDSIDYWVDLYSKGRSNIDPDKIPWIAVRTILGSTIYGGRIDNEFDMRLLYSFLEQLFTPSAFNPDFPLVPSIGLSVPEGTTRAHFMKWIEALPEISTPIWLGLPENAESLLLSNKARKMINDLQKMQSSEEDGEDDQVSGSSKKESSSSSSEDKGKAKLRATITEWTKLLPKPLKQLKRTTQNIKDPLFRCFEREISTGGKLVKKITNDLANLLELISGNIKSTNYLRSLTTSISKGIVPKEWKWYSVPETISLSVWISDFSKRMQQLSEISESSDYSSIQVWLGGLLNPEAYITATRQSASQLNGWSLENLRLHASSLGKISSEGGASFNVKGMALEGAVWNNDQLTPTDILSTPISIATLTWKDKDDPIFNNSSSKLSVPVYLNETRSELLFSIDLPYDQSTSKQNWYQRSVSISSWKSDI

[2] = biological target: T2, cytoplasmic dynein motor domain (380 kDa) (Dictyostelium discoideum, UniProt P34036); experiment: cryo-EM reconstruction of head, […] Å; assay type: binding; conditions: 1 mM ADP, 4 mM MgSO4, pH 7.0; ligand itself not resolved
T2 construct: gene dhcA; tail-less motor domain V1388-I4730, N-terminal His6 and FLAG tags, 380 kDa
T2 sequence (P34036 1388-4730): as the sequence (P34036 1388-4730 E2027Q) above, with Q640E counted along it

| Compound | cryo-EM reconstruction of head, 25 Å [1] | cryo-EM reconstruction of head, 23 Å [2] |
| --- | --- | --- |
| Nc1ncnc2c1ncn2[C@@H]1O[C@H](COP(=O)(O)OP(=O)(O)OP(=O)(O)O)[C@@H](O)[C@H]1O [ATP] | cytoplasmic dynein head, bearing a E2027Q substitution, in the ATP state |  |
| Nc1ncnc2c1ncn2[C@@H]1O[C@H](COP(=O)(O)OP(=O)(O)O)[C@@H](O)[C@H]1O [ADP] |  | Cryo-EM reconstruction of the head domain of cytoplasmic dynein in the presence of ADP |
